Test results: patent US5618948A, “Process for preparing an enantiomer of a carbazole derivative” (SmithKline Beecham p.l.c., priority 1995, dated 1997)

molecular target: T1, 5-HT1 -like Receptor (Oryctolagus cuniculus, UniProt P49144); assay: 5-HT1-like Receptor Screen, rabbit isolated basilar artery (isometric tension, cumulative concentration-effect curves); format: cell-based; details: endothelium removed, in presence of ascorbate, indomethacin, cocaine, ketanserin and prazosin
T1 construct: the basilar artery removed with the aid of a dissecting microscope; from tissue; host or cells: rabbit basilar artery ring segments, endothelium removed
Experimental: 5-HT1 -like Receptor Screen
Experiments were performed in intracranial arteries from rabbit isolated basilar artery in a similar method to that described previously (Parsons and Whalley, 1989, Eur J Pharmacol 174, 189-196.)
In brief, rabbits were killed by overdose with anaesthetic (sodium pentobarbitone). The whole brain was quickly removed and immersed in ice cold modified Kreb's solution and the basilar artery removed with the aid of a dissecting microscope. The Krebs solution was of the following composition (mM) Na^+ (120); K^+ (5); Ca^2+ (2.25)Mg^2+(0.5); Cl^- (98.5); SO4^2- (1); ETDA (0.04), equilibrated with 95% O2 /5% CO2. The endothelium was removed by a gentle rubbing of the lumen with a fine metal wire. Arteries were then cut into ring segments (ca 4-5 mm wide) and set up for recording of isometric tension in 50 ml tissue baths in modified Krebs solution with the additional supplement of (mM); […] (20); fumarate (10); pyruvate (5); L-glutamate (5) and glucose (10). The arteries were then placed under a resting force of 3-4 mN maintained at 37° C. and the solution bubbled with 95% O2 /5% CO2.
After tests for initial reactivity with 90 mM KCl depolarising solution and for lack of acetylcholine-induced relaxation of 5-HT ([…]) precontraction, cumulative concentration-effect curves ([…]) to 5-HT were constructed in the presence of ascorbate […], cocaine […], indomethacin […], ketanserin […] and prazosin […].
Following a 45-60 min wash period, cumulative concentration-effect curves to the test compounds or 5-HT (as a time match control) were constructed in the presence of ascorbate, indomethacin, cocaine, ketanserin and prazosin.
R-(+)-6-carboxamido-3-N-methylamino-1,2,3,4-tetrahydrocarbazole; (compound A)
S-(-)-6-carboxamido-3-N-methylamino-1,2,3,4-tetrahydrocarbazole; (compound B)
R-(+)-6-carboxamido-3-N-ethylamino-1,2,3,4-tetrahydrocarbazole; (compound C)

T1 sequence (P49144 whole entry): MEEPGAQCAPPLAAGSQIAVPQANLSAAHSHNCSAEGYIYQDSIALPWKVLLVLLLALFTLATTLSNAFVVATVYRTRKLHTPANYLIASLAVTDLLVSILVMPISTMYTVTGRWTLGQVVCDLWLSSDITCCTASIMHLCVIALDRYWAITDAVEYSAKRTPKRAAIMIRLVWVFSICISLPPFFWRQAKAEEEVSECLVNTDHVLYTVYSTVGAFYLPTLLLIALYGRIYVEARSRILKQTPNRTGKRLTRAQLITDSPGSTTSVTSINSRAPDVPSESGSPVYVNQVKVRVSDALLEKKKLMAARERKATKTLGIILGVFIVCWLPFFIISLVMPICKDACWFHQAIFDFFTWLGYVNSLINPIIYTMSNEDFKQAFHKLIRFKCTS

| SMILES | EC50 [nM] |
| --- | --- |
| CN[C@H]1CCc2[nH]c3ccc(C(N)=O)cc3c2C1 [Compound B, S-(-)-6-carboxamido-3-N-methylamino-1,2,3,4-tetrahydrocarbazole] | > 2000 |
| CCN[C@@H]1CCc2[nH]c3ccc(C(N)=O)cc3c2C1 [Compound C, R-(+)-6-carboxamido-3-N-ethylamino-1,2,3,4-tetrahydrocarbazole] | 160 |
| CN[C@@H]1CCc2[nH]c3ccc(C(N)=O)cc3c2C1 [Compound A, R-(+)-6-carboxamido-3-N-methylamino-1,2,3,4-tetrahydrocarbazole] | 30 |
